{
  "source": "patent US8729073B2",
  "about": "“5-methyl-1-(naphthalen-2-yl)-1H-pyrazole derivatives and their use in potentiating the effect of opioid analgesics” (Laboratorios Del Dr. Esteve, S.A., priority 2010, dated 2014)",
  "key": {"morphine analgesia": {"test_system": "morphine analgesia", "assay": "Tail-flick test in mice, modulation of morphine analgesia", "format": "in vivo", "settings": "male CD1 mice; Example n^o 1 5-20 mg/kg i.p. coadministered with fixed dose of morphine 2 mg/kg s.c.; 30 min post-administration; FIG. 3"}, "[1]": {"test_system": "capsaicin-induced neuropathic pain", "assay": "Effect on capsaicin in development of mechanical allodynia (von Frey filaments)", "format": "in vivo", "settings": "mice, test compound given before 1 μg capsaicin (1% DMSO) injected into paw, FIG. 2", "procedure": "Effect on Capsaicin in Development of Mechanical Allodynia\nThis model uses the von-Frey Filaments and is a model to test the effects or symptoms of neuropathic pain, allodynia etc.\nInterest of the model: • The injection of 1 μg of capsaicin to experimental animals produces acute pain followed by hyperalgesia/allodynia • The mechanisms involved in capsaicin-induced acute pain and hyperalgesia are relatively well known (mainly activation of peripheral nociceptors and sensitization of spinal cord neurons, respectively)\nAfter habituation mice were according to FIG. 1 first treated with the test-compound (or solvent in controls). Then 1 μg capsaicin (1% DMSO) is injected into their paw resulting in developing pain in the effected paw. The effected paw is then treated with a mechanical stimulus and the latency time before the paw is withdrawn is measured."}},
  "note": "“Also recorded” adds a separate entry of the source.",
  "data": [
    {"smiles": "Cc1cc(OCCN2CCOCC2=O)nn1-c1ccc2ccccc2c1", "note": "[Example n^o 1, 4-(2-(5-methyl-1-(naphthalen-2-yl)-1H-pyrazol-3-yloxy)ethyl)morpholin-3-one]", "values": [
      {"measurement": "potentiation of morphine analgesia (% Analgesia, tail-flick latency)", "setting": "morphine analgesia", "value": "enhances the analgesic effect of a fixed dose of morphine; also recorded: dose-dependently increased the analgesic efficacy of morphine"},
      {"measurement": "analgesia in capsaicin-induced neuropathic pain (latency time before the paw is withdrawn, mechanical stimulus)", "setting": "[1]", "value": "dose dependency of the treatment with the compound of example 1 showing analgesia in capsaicin-induced neuropathic pain"}
    ]}
  ]
}
